Data taken from patent US5500442A, “Cyclobut-3-ene-1,2-dione derivatives as smooth muscle relaxants” (American Home Products Corporation, priority 1994, dated 1996).

Assays:
Isolated Rat Bladder = test: Bladder smooth muscle relaxing activity: inhibition of KCl-enhanced contractions in isolated rat bladder strips; assay type: cell-based, Sprague-Dawley rats; settings: 15 mM KCl; for IC50: 37 deg. C, read-out: IC50 of Bladder Contraction; for inhibition at up to 30 µM: at 30 μM, value in parentheses, read-out: % Inhibition of Bladder Contraction at 30 μM
Text: Bladder smooth muscle relaxing activity of the compounds of this invention was established in accordance with standard pharmaceutically accepted test procedures in representative compounds as follows:
Sprague-Dawley rats (150-200 g) are rendered unconscious by CO2 asphyxiation and then euthanized by cervical dislocation. The bladder is removed into warm (37 deg. C) physiological salt solution (PSS) of the following composition (mM): NaCl, 118.4; KCl, 4.7; CaCl2, 2.5; […]; NaHCO3, 24.9; KH2 PO4, 1.2; glucose, 11.1; EDTA, 0.023; gassed with […]; pH 7.4. The bladder is opened and then cut into strips 1-2 mm in width and 7-10 mm in length. The strips are subsequently suspended in a 10 ml tissue bath under an initial resting tension of 1.5 g. The strips are held in place by two surgical clips one of which is attached to fixed hook while the other is attached to an isometric force transducer. […] The carbachol is then washed out and the tissue allowed to relax to its resting level of activity. Following 1 further 30 min period of recovery an additional 15 mM KCl are introduced into the tissue bath. This increase in KCl concentration results in a large increase in the amplitude of spontaneous contractions (and initiation of contractions in previously quiescent strips) superimposed upon a small increase in basal tone. Following stabilization of this enhanced level of contractile activity, incremental increases in the concentration of test compound or vehicle are introduced into the tissue bath. Contractile activity is measured for each compound or vehicle concentration during the last rain of a 30 rain challenge.
Isometric force developed by the bladder strips is measured using a […] to elicit 50% inhibition of pre-drug contractile activity (IC50 concentration) is calculated from this concentration-response curve. The maximum percentage inhibition of contractile activity evoked by a test compound is also recorded for concentrations of test compound<or equal to 30 uM.

[1] = system: Isolated Rat Aortic Tissue; test: Aortic smooth muscle relaxing activity: inhibition of KCl-evoked contracture in isolated rat aortic rings; assay type: cell-based, Sprague-Dawley rats; settings: isolated rat thoracic aorta rings, 25 mM KCl; read-out: IC50 of Aorta Contraction
Text: Aortic smooth muscle relaxing activity of the compounds of this invention was established in accordance with standard pharmaceutically accepted test procedures in representative compounds as follows:
Sprague-Dawley rats (150-200 g) are rendered unconscious by CO2 asphyxiation and then euthanized by cervical dislocation. The thoracic aorta is removed into warm (37 deg. C.) Krebs-Henseleit solution. The aorta is cleaned of fat and loose adventitia and cut into rings 3-4 mm in width. The rings are subsequently suspended between two stainless steel wire tissue holders in a 10 ml tissue bath. One wire tissue holder is attached to fixed hook while the other is attached to an isometric force transducer. Resting tension is set at 1.0 g. The tissues are allowed to recover for a period of 60 mins prior to beginning the experiment. The tissues are challenged with 25 mM KCl to elicit a contracture. The tissue are then washed repeatedly with fresh Krebs-Henseleit solution over a period of 30 rains and allowed to recover to baseline tension. 25 mM KCl is then introduced into the tissue bath to evoke a contracture that is allowed to stabilize for not less than 45 rains. Increasing concentrations of test compound or vehicle are then added to the tissue bath in a cumulative fashion.
Isometric force developed by the aortic rings is measured using force transducer and recorded on a polygraph. The percentage inhibition of contractile force evoked by each concentration of a given test compound is used to generate a concentration-response curve. The concentration required to elicit 50% inhibition of pre-drug contractile activity (IC50 concentration) is calculated from this concentration-response curve. The maximum percentage inhibition of contractile activity evoked by a test compound is also recorded for concentrations of test compound<or equal to 30 uM.

Row | Structure (SMILES) | IC50 (Isolated Rat Bladder) [nM] | IC50 [1] [nM] | inhibition at up to 30 µM (Isolated Rat Bladder) [%]
1 | CC1(C)Oc2ccc(-c3c(O)c(=O)c3=O)cc2[C@@H](N2Cc3ccccc3C2=O)[C@@H]1O (relative stereo) [Example 8, 3-Hydroxy-4-[trans-3-hydroxy-2,2-dimethyl-4-(1-oxo-1,3-dihydroisoindol-2-yl)-chroman-6-yl]-cyclobut-3-ene-1,2-dione] | 21900 |  | 
2 | CC1(C)Oc2ccc(-c3c(NCCO)c(=O)c3=O)cc2[C@@H](N2Cc3ccccc3C2=O)[C@@H]1O (relative stereo) [Example 5, 3-[trans-3-Hydroxy-2,2-dimethyl-4-(1-oxo-1,3-dihydroisoindol-2-yl),-chroman-6-yl]-4-(2-hydroxy-ethylamino)-cyclobut-3-ene-1,2-dione] |  |  | 14
3 | CC(C)Oc1c(-c2ccc3c(c2)[C@@H](N2Cc4ccccc4C2=O)[C@H](O)C(C)(C)O3)c(=O)c1=O (relative stereo) [Example 3, 3-[trans-3-hydroxy-2,2-dimethyl-4-(1-oxo-1,3-dihydroisoindol-2-yl)-chroman-6-yl]-4-isopropoxy-cyclobut-3-ene-1,2-dione] | 10100 ± 390 | 1160 ± 210 | 
4 | CC1(C)Oc2ccc(-c3c(N4CCCC4)c(=O)c3=O)cc2[C@@H](N2Cc3ccccc3C2=O)[C@@H]1O (relative stereo) [Example 6, 3-[trans-3-Hydroxy-2,2-dimethyl-4-(1-oxo-1,3-dihydroisoindol-2-yl)-chroman-6-yl]-4-pyrrolindin-1-yl-cyclobut-3-ene-1,2-dione] |  |  | 33

Continued, in another order:

Row | IC50 (Isolated Rat Bladder) [nM] | IC50 [1] [nM] | Structure (SMILES) | inhibition at up to 30 µM (Isolated Rat Bladder) [%]
5 | 110 | 15 ± 7 | Cc1c(-c2ccc3c(c2)[C@@H](N2Cc4ccccc4C2=O)[C@H](O)C(C)(C)O3)c(=O)c1=O (relative stereo) [Example 9, 3-[trans-3-Hydroxy-2,2-dimethyl-4-(1-oxo-1,3-dihydro-isoindol-2-yl)-chroman-6-yl]-4-methyl-cyciobut-3-ene-1,2-dione] | 
6 | 190 ± 20 | 170 ± 40 | CC1(C)Oc2ccc(-c3c(N)c(=O)c3=O)cc2[C@@H](N2Cc3ccccc3C2=O)[C@@H]1O (relative stereo) [Example 4, 4-Amino-3-[trans-3-hydroxy-2,2-dimethyl-4-(1-oxo-1,3-dihydroisoindol-2-yl)-chroman-6-yl]-cyclobut-3-ene-1,2-dione] | 
7 | 1620 | 830 ± 240 | CNc1c(-c2ccc3c(c2)[C@@H](N2Cc4ccccc4C2=O)[C@H](O)C(C)(C)O3)c(=O)c1=O (relative stereo) [Example 7, 3-[trans-3-Hydroxy-2,2-dimethyl-4-(1-oxo-1,3-dihydroisoindol-2-yl)-chroman-6-yl]-4-methylamino-cyclobut-3-ene-1,2-dione] | 
